Measurements as given in patent publication US20170108514A1, “DIAGNOSIS OF MULTIPLE SCLEROSIS IN HUMAN AND ANIMAL SUBJECTS” (THE REGENTS OF THE UNIVERSITY OF COLORADO, a body corporate, priority 2014, published 2017).
Counter-ions that a name gives are not always drawn.

Assays:
[1] = test system: multiple sclerosis patients; conditions: cited from earlier work; for relapses / attacks: clinical reports; for relapses / attacks / MRI / MRI lesions / disease / disability progression: MS patients
[2] = test system: multiple sclerosis patients; conditions: human, in vivo; cited from earlier work
[3] = test system: Th40 cells from MS subjects; test: Antigen assay: proliferation of CFSE-labeled T cells (Th40) exposed to autologous APC/peptide antigen for 7 days; assay type: cell-based, human
[4] = DR2 and DR6 co-expressed, antigen 5 μg/ml
[5] = DR4 expressing MS subjects, open second allele, antigen 5 μg/ml
[6] = DR6 a fixed allele, any haplotype at other allele, antigen 5 μg/ml
[7] = DR6 at both alleles, antigen 5 μg/ml
[8] = DR4 co-expressed with DR2, antigen 5 μg/ml
[9] = DR4 co-expressed with DR6, antigen 5 μg/ml
[10] = RRMS subjects, DR2 at one allele, other allele any haplotype, antigen 5 μg/ml

Compound: Glatiramer acetate [Copaxone]
- relapses / attacks [1]: decreasing frequency and severity of attacks
- MRI / MRI lesions ([1]; reports): no reports of changes in MRI lesions

Compound: C/C(O)=C(\C#N)C(=O)Nc1ccc(C(F)(F)F)cc1 [Aubagio, teriflunomide]
- safety in patients [2]: moderate potential for hepatotoxicity

Compound: LVERGNHSKIVAGVLGLI [PLP103, MS associated peptide antigen from PLP]
- antigen response by Th40 cells [3, 4]: significantly greater than the remaining antigens tested
- antigen response by Th40 cells [3, 5]: equally
- antigen response by Th40 cells [3, 6]: best response
- antigen response by Th40 cells [3, 7]: best Th40 response

Compound: O=C1c2c(O)ccc(O)c2C(=O)c2c(NCCNCCO)ccc(NCCNCCO)c21 [Novantrone, mitoxantrone]
- relapses / attacks [1]: lessens relapses
- disease / disability progression ([1]; reports): slows progression

Compound: alemtuzumab [Lemtrada]
- safety in patients [2]: significantly increases the risk for opportunistic infections

Compound: ADPGSRPHLIRLFSRDAPGR [MBP83, MS associated peptide antigen from MBP]
- antigen response by Th40 cells [3, 8]: diminished
- antigen response by Th40 cells [3, 9]: increased
- antigen response by Th40 cells [3, 6]: best response
- antigen response by Th40 cells [3, 10]: least reactive

Compound: FFRDHSYQE [MOG99, MS associated peptide antigen from MOG]
- antigen response by Th40 cells [3, 4]: significantly less response
- antigen response by Th40 cells [3, 8]: remains high
- antigen response by Th40 cells [3, 9]: unaffected
- antigen response by Th40 cells [3, 5]: responded
- antigen response by Th40 cells [3, 10]: best antigen response

Compound: CCCCCCCCc1ccc(CCC(N)(CO)CO)cc1 [Gilenya, fingolimod]
- safety in patients [2]: extremely immune-suppressive

Compound: MEVGWYRPPFSRVVHLYRNGK [MOG35, MS associated peptide antigen from MOG]
- antigen response by Th40 cells [3, 4]: prominent response antigen
- antigen response by Th40 cells [3, 5]: very little response

Compound: Natalizumab [Tysabri]
- MRI / MRI lesions ([1]; reports): some positive effects on MRI
- disease / disability progression ([1]; reports): slow progression
- reduction in relapse rate ([1]; reports, MS subjects, IV infusion once every four weeks): two-thirds

Compound: COC(=O)/C=C/C(=O)OC [Tecfidera, dimethyl fumarate]
- relapses / attacks [1]: some reduction in the average annual number of relapses
- disease / disability progression ([1]; reports): not reduced significantly

Compound: AQGTLSKIFKLGGRDSRSGSPMARR [MBP146, MS associated peptide antigen from MBP]
- antigen response by Th40 cells [3, 4]: no response
- antigen response by Th40 cells [3, 7]: worst response antigen
